Values after ≈ are worked out from the molar mass of the structure shown.
Tested on: Pasteurella multocida
Test: minimum inhibitory concentration (MIC)
Protocol: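 Broth microdilution MIC (Sensititre BOPO7F bovine plate, CLSI methods) of 19 antimicrobials against field isolates of P. multocida, M. haemolytica, H. somni (deep nasopharyngeal swabs) and E. coli, Enterococcus spp. (rectal swabs) from weaned dairy heifers. Incubation 16-24 h at 35 C. MIC is the lowest concentration preventing visible growth. Values with <= or > lie at the tested range limits. Trimethoprim-sulfamethoxazole is given as the trimethoprim component of a 1:19 mixture.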

CCN1CCN(c2cc3c(cc2F)c(=O)c(C(=O)O)cn3C2CC2)CC1 [Enrofloxacin]
minimum inhibitory concentration (isolate (source animal id): 10): 1 µg/mL (≈ 2.78 µM)
minimum inhibitory concentration (isolate (source animal id): 11): 1 µg/mL (≈ 2.78 µM)
minimum inhibitory concentration (isolate (source animal id): 12): 1 µg/mL (≈ 2.78 µM)
minimum inhibitory concentration (isolate (source animal id): 19): 1 µg/mL (≈ 2.78 µM)
minimum inhibitory concentration (isolate (source animal id): 23): 1 µg/mL (≈ 2.78 µM)
minimum inhibitory concentration (isolate (source animal id): 26): 2 µg/mL (≈ 5.56 µM)
minimum inhibitory concentration (isolate (source animal id): 98): 2 µg/mL (≈ 5.56 µM)
minimum inhibitory concentration (isolate (source animal id): 104): 0.5 µg/mL (≈ 1.39 µM)
minimum inhibitory concentration (isolate (source animal id): 115): ≤ 0.12 µg/mL
minimum inhibitory concentration (isolate (source animal id): 117): > 2 µg/mL
minimum inhibitory concentration (isolate (source animal id): 118): 2 µg/mL (≈ 5.56 µM)
minimum inhibitory concentration (isolate (source animal id): 121): ≤ 0.12 µg/mL
minimum inhibitory concentration (isolate (source animal id): 124): 1 µg/mL (≈ 2.78 µM)
minimum inhibitory concentration (isolate (source animal id): 125): 1 µg/mL (≈ 2.78 µM)
minimum inhibitory concentration (isolate (source animal id): 128): ≤ 0.12 µg/mL
minimum inhibitory concentration (isolate (source animal id): 131): > 2 µg/mL
minimum inhibitory concentration (isolate (source animal id): 135): > 2 µg/mL
minimum inhibitory concentration (isolate (source animal id): 136): ≤ 0.12 µg/mL
minimum inhibitory concentration (isolate (source animal id): 140): 1 µg/mL (≈ 2.78 µM)
minimum inhibitory concentration (isolate (source animal id): 144): 1 µg/mL (≈ 2.78 µM)
minimum inhibitory concentration (isolate (source animal id): 146): 1 µg/mL (≈ 2.78 µM)
minimum inhibitory concentration (isolate (source animal id): 150): ≤ 0.12 µg/mL
minimum inhibitory concentration (isolate (source animal id): 151): ≤ 0.12 µg/mL
minimum inhibitory concentration (isolate (source animal id): 153): 1 µg/mL (≈ 2.78 µM)
minimum inhibitory concentration (isolate (source animal id): 155): 0.5 µg/mL (≈ 1.39 µM)
minimum inhibitory concentration (isolate (source animal id): 157): 2 µg/mL (≈ 5.56 µM)
minimum inhibitory concentration (isolate (source animal id): 160): ≤ 0.12 µg/mL
minimum inhibitory concentration (isolate (source animal id): 164): ≤ 0.12 µg/mL
minimum inhibitory concentration (isolate (source animal id): 165): ≤ 0.12 µg/mL
minimum inhibitory concentration (isolate (source animal id): 167): ≤ 0.12 µg/mL
minimum inhibitory concentration (isolate (source animal id): 168): 2 µg/mL (≈ 5.56 µM)
minimum inhibitory concentration (isolate (source animal id): 169): ≤ 0.12 µg/mL
minimum inhibitory concentration (isolate (source animal id): 170): ≤ 0.12 µg/mL
minimum inhibitory concentration (isolate (source animal id): 171): ≤ 0.12 µg/mL
minimum inhibitory concentration (isolate (source animal id): 172): ≤ 0.12 µg/mL
minimum inhibitory concentration (isolate (source animal id): 173): 2 µg/mL (≈ 5.56 µM)
minimum inhibitory concentration (isolate (source animal id): 174): ≤ 0.12 µg/mL
minimum inhibitory concentration (isolate (source animal id): 175): ≤ 0.12 µg/mL
minimum inhibitory concentration (isolate (source animal id): 176): ≤ 0.12 µg/mL
minimum inhibitory concentration (isolate (source animal id): 177): ≤ 0.12 µg/mL
minimum inhibitory concentration (isolate (source animal id): 178): ≤ 0.12 µg/mL
minimum inhibitory concentration (isolate (source animal id): 179): ≤ 0.12 µg/mL
minimum inhibitory concentration (isolate (source animal id): 182): ≤ 0.12 µg/mL
minimum inhibitory concentration (isolate (source animal id): 192): ≤ 0.12 µg/mL
minimum inhibitory concentration (isolate (source animal id): 193): ≤ 0.12 µg/mL
minimum inhibitory concentration (isolate (source animal id): 195): ≤ 0.12 µg/mL
minimum inhibitory concentration (isolate (source animal id): 196): ≤ 0.12 µg/mL
minimum inhibitory concentration (isolate (source animal id): 197): ≤ 0.12 µg/mL
minimum inhibitory concentration (isolate (source animal id): 198): 2 µg/mL (≈ 5.56 µM)
minimum inhibitory concentration (isolate (source animal id): 199): ≤ 0.12 µg/mL
minimum inhibitory concentration (isolate (source animal id): 200): ≤ 0.12 µg/mL
minimum inhibitory concentration (isolate (source animal id): 201): ≤ 0.12 µg/mL
minimum inhibitory concentration (isolate (source animal id): 203): ≤ 0.12 µg/mL
minimum inhibitory concentration (isolate (source animal id): 204): ≤ 0.12 µg/mL
minimum inhibitory concentration (isolate (source animal id): 205): 2 µg/mL (≈ 5.56 µM)
minimum inhibitory concentration (isolate (source animal id): 206): ≤ 0.12 µg/mL
minimum inhibitory concentration (isolate (source animal id): 207): ≤ 0.12 µg/mL
minimum inhibitory concentration (isolate (source animal id): 208): ≤ 0.12 µg/mL
minimum inhibitory concentration (isolate (source animal id): 209): ≤ 0.12 µg/mL
minimum inhibitory concentration (isolate (source animal id): 210): 2 µg/mL (≈ 5.56 µM)
minimum inhibitory concentration (isolate (source animal id): 213): ≤ 0.12 µg/mL
minimum inhibitory concentration (isolate (source animal id): 216): ≤ 0.12 µg/mL
minimum inhibitory concentration (isolate (source animal id): 223): > 2 µg/mL
minimum inhibitory concentration (isolate (source animal id): 227): ≤ 0.12 µg/mL
minimum inhibitory concentration (isolate (source animal id): 229): 2 µg/mL (≈ 5.56 µM)
minimum inhibitory concentration (isolate (source animal id): 233): 2 µg/mL (≈ 5.56 µM)
minimum inhibitory concentration (isolate (source animal id): 234): 2 µg/mL (≈ 5.56 µM)
minimum inhibitory concentration (isolate (source animal id): 237): > 2 µg/mL
minimum inhibitory concentration (isolate (source animal id): 241): > 2 µg/mL
minimum inhibitory concentration (isolate (source animal id): 245): > 2 µg/mL
minimum inhibitory concentration (isolate (source animal id): 247): 0.5 µg/mL (≈ 1.39 µM)
minimum inhibitory concentration (isolate (source animal id): 250): 1 µg/mL (≈ 2.78 µM)
minimum inhibitory concentration (isolate (source animal id): 254): 2 µg/mL (≈ 5.56 µM)
minimum inhibitory concentration (isolate (source animal id): 255): 2 µg/mL (≈ 5.56 µM)
minimum inhibitory concentration (isolate (source animal id): 258): ≤ 0.12 µg/mL
minimum inhibitory concentration (isolate (source animal id): 261): 2 µg/mL (≈ 5.56 µM)
minimum inhibitory concentration (isolate (source animal id): 262): 1 µg/mL (≈ 2.78 µM)
minimum inhibitory concentration (isolate (source animal id): 269): ≤ 0.12 µg/mL
minimum inhibitory concentration (isolate (source animal id): 270): 2 µg/mL (≈ 5.56 µM)
minimum inhibitory concentration (isolate (source animal id): 274): > 2 µg/mL
minimum inhibitory concentration (isolate (source animal id): 275): 2 µg/mL (≈ 5.56 µM)
minimum inhibitory concentration (isolate (source animal id): 276): > 2 µg/mL
minimum inhibitory concentration (isolate (source animal id): 277): ≤ 0.12 µg/mL
minimum inhibitory concentration (isolate (source animal id): 278): 2 µg/mL (≈ 5.56 µM)
minimum inhibitory concentration (isolate (source animal id): 279): 0.5 µg/mL (≈ 1.39 µM)
minimum inhibitory concentration (isolate (source animal id): 280): 0.5 µg/mL (≈ 1.39 µM)
minimum inhibitory concentration (isolate (source animal id): 284): 2 µg/mL (≈ 5.56 µM)
minimum inhibitory concentration (isolate (source animal id): 285): 1 µg/mL (≈ 2.78 µM)
minimum inhibitory concentration (isolate (source animal id): 287): 2 µg/mL (≈ 5.56 µM)
minimum inhibitory concentration (isolate (source animal id): 290): ≤ 0.12 µg/mL
minimum inhibitory concentration (isolate (source animal id): 294): ≤ 0.12 µg/mL
minimum inhibitory concentration (isolate (source animal id): 295): ≤ 0.12 µg/mL
minimum inhibitory concentration (isolate (source animal id): 296): 1 µg/mL (≈ 2.78 µM)
minimum inhibitory concentration (isolate (source animal id): 307): ≤ 0.12 µg/mL
minimum inhibitory concentration (isolate (source animal id): 310): ≤ 0.12 µg/mL
minimum inhibitory concentration (isolate (source animal id): 311): ≤ 0.12 µg/mL
minimum inhibitory concentration (isolate (source animal id): 312): 1 µg/mL (≈ 2.78 µM)
minimum inhibitory concentration (isolate (source animal id): 313): 1 µg/mL (≈ 2.78 µM)
minimum inhibitory concentration (isolate (source animal id): 315): 1 µg/mL (≈ 2.78 µM)
minimum inhibitory concentration (isolate (source animal id): 316): 1 µg/mL (≈ 2.78 µM)
